From patent US8318697B2, “Prophylactic and therapeutic treatment of infectious and other diseases with mono- and disaccharide-based compounds” (Corixa Corporation, priority 2000, dated 2012)
Read-outs that look alike come from different tables or passages of the source.

What was measured:
human whole blood = type: cell-based; settings: for IL10/TNFα cba: ratio of IL-10 to TNF; for TNFα/IL10 cba: ratio of TNF to IL-10
[1] = system: human peripheral blood mononuclear cells (PBMC); test: Cytokine elaboration from frozen human PBMC (ELISA); type: cell-based; settings: PBMC donor AD112, 22 hours; FIG. 9
Description: PBMC were stored frozen until used. PBMC donor designation was AD112. PBMC at a density of 6.26×10^5 were plated per well in a 48 well plate in 1.0 ml of medium. Medium consisted of RPMI-1640 plus sodium bicarbonate, 10% fetal bovine serum, 4 mM glutamine, 100 ug/ml gentamicin and 10 mM HEPES. PBMC were cultured for 22 hours at 37° C. in a carbon dioxide incubator. Supernatants were harvested and tested by ELISA (R&D Systems) for IL-6, IL-8, IL-10 and MIP-1 beta concentration. Cytokine concentration in supernatants was compared to supernatants obtained from unstimulated PBMC cultured identically.

[2] = system: Ogawa P. gingivalis LPS stimulated whole blood cells; test: Inhibition of LPS-induced cytokines in whole blood; type: cell-based, human; settings: 10, 5, 2.5 ug/mL
Source text: Table 4 provides the maximum levels of IL-4, IL-2 and IL-5 obtained, as well as ratios of TNF to IL-10, and ratios of IL-10 to TNF. Inhibition data for IL-8, reported as a percentage, are also provided on the right hand side of Table 4. For example, 90% inhibition would calculate to a 90% reduction of cytokine levels. MIP-1β results were similar. […]

human PBMCs = test: Lineage specific cell surface activation markers in human PBMCs; type: cell-based; settings: LPS 10 ng/ml, RC-526 or RC-527 10 μg/ml
Description: This experiment describes lineage specific cell surface activation markers in human PBMCs activated with LPS or selected AGPs. PBMCs were harvested from a normal donor and plated at 1×10^7 cells/well in a […] (6 well plate) with 3 ml RPMI. LPS (10 ng/ml), RC-526 (10 μg/ml) or RC-527 (10 μg/ml) were added to each of 4 wells. Cells were harvested from each of 2 wells at 4 hr and 24 hr following activation and immediately stained for the lineage and cell surface activation markers.

[3] = system: L. monocytogenes 10403 serotype; test: Murine Listeria monocytogenes challenge model; type: in vivo, Mice; settings: 1 μg intravenously in 0.2% TEOA, challenge two days later; FIGS. 14-17
Description: This example provides experiments evaluating the induction of non-specific resistance in the murine Listeria monocytogenes challenge model performed using various AGPs and MPL. Mice (5 per group) were treated intravenously with the 1 μg of an AGP or MPL solubilized in 0.2% TEOA. Two days later the mice were challenged intravenously with a ˜10^5 L. monocytogenes 10403 serotype (provided by M. L. Gray, Montana State University, Bozeman, Mont.). Two days after the challenge, the mice were sacrificed and the number of colony forming units (CFUs) in the spleens of individual mice were determined by plating 10-fold serial dilutions of splenic homogenates on tryptic soy agar plates. The degree of protection afforded by a given AGP or MPL was calculated by subtracting the average number of bacteria per spleen (log 10 value) in the group of mice treated with a given compound, from the average number of bacteria per spleen (log 10 value) in a control group that was “sham” treated with vehicle (0.2% TEOA) prior to challenge with L. monocytogenes.

influenza A/HK/68 = test: Lethal influenza challenge model, intranasal monotherapy; settings: i.n.; for protection against influenza challenge over dose range: doses up to 40 μg, FIG. 12; for protection against influenza challenge, compared by secondary fatty acid chains: FIG. 11, FIG. 13
Description: A dose of 20 μg MonoPhosphoryl Lipid A (MPL) was given to groups of female BALB/c mice by intranasal (i.n.) administration either 2 days prior to or the day of lethal influenza challenge. All mice were challenged with approximately 2 LD50 infectious influenza A/HK/68 administered i.n. Mortality was monitored for 21 days following influenza challenge.
A dose of 20 μg L-Seryl AGPs (RC-526, RC-554, RC-555, RC-537, RC-527, RC-538, RC-560, RC-512 and vehicle only) was given to groups of female BALB/c mice by intranasal (i.n.) administration 2 days prior to or the day of lethal influenza challenge. All mice were challenged with approximately 2 LD50 infectious influenza A/HK/68 administered i.n. The disease index (ruffled fur, hunched posture and labored breathing) was monitored during days 4-19 following influenza challenge. Weight loss and mortality were monitored for 21 days following influenza challenge.

Row | SMILES | IL10/TNFα cba (human whole blood; donor 1) | TNFα/IL10 cba (human whole blood; donor 1) | IL-1β cba2 (human whole blood; donor 1) | IL10/TNFα cba (human whole blood; donor 2) | TNFα/IL10 cba (human whole blood; donor 2) | % inhib. LPS IL-8 [2] [%] | CD3+ CD69+ percent expression in NK-Cells (CD56+) (human PBMCs; 4 hr activation) [%] | CD25+ percent expression in B-cells (CD19+) (human PBMCs; 4 hr activation) [%] | CD25+ percent expression in Mono/Macs (CD14+) (human PBMCs; 4 hr activation) [%] | CD69+ percent expression in B-cells (CD19+) (human PBMCs; 4 hr activation) [%] | CD69+ percent expression in Mono/Macs (CD14+) (human PBMCs; 4 hr activation) [%] | CD69+ percent expression in NK-Cells (CD56+) (human PBMCs; 4 hr activation) [%] | CD69+ percent expression in T-cells (CD3+) (human PBMCs; 4 hr activation) [%] | CD86+ percent expression in B-cells (CD19+) (human PBMCs; 4 hr activation) [%] | CD95+ percent expression in B-cells (CD19+) (human PBMCs; 4 hr activation) [%] | MFI CD11b+ in Mono/Macs (CD14+) (human PBMCs; 4 hr activation) | MFI CD54+ (ICAM-1) in B-cells (CD19+) (human PBMCs; 4 hr activation) | MFI CD54+(ICAM-1) in Mono/Macs (CD14+) (human PBMCs; 4 hr activation) | TLR2+ percent expression in Mono/Macs (CD14+) (human PBMCs; 4 hr activation) [%] | CD3+ CD69+ percent expression in NK-Cells (CD56+) (human PBMCs; 24 hr activation) [%] | other results
1 | CCCCCCCCCCCCCC(=O)O[C@H](CCCCCCCCCCC)CC(=O)NCCO[C@@H]1O[C@H](CO)[C@@H](OP(=O)(O)O)[C@H](OC(=O)C[C@@H](CCCCCCCCCCC)OC(=O)CCCCCCCCCCCCC)[C@H]1NC(=O)C[C@@H](CCCCCCCCCCC)OC(=O)CCCCCCCCCCCCC.CCN(CC)CC [RC-529] | 6.2 | 0.4 | – | – | – | – | – | – | – | – | – | – | – | – | – | – | – | – | – | – | IL-6 elaboration compared to MPL [1]: induced more IL-6, IL-10 and MIP-1 beta than did MPL; IL-10 elaboration compared to MPL [1]: induced more IL-6, IL-10 and MIP-1 beta than did MPL; MIP-1 beta elaboration compared to MPL [1]: induced more IL-6, IL-10 and MIP-1 beta than did MPL
2 | CCCCCCCCCCC[C@H](CC(=O)N[C@H]1[C@H](OC[C@H](NC(=O)C[C@@H](CCCCCCCCCCC)OC(=O)CCCCCCCCC)C(=O)O)O[C@H](CO)[C@@H](OP(=O)(O)O)[C@@H]1OC(=O)C[C@@H](CCCCCCCCCCC)OC(=O)CCCCCCCCC)OC(=O)CCCCCCCCC.CCN(CC)CC [RC-527] | 0.4 | 2.5 | 7102 | 0.3 | 3.4 | 5 | 11 | 0 | 1 | 56 | 22 | 40 | 10 | 8 | 7 | 1870 | 65 | 743 | 85 | 16 | CD14+ CD25+ percent expression in Mono/Macs (CD14+) (human PBMCs; 24 hr activation): 70%; CD14+ CD69+ percent expression in Mono/Macs (CD14+) (human PBMCs; 24 hr activation): 22%; CD14+ TLR2+ percent expression in Mono/Macs (CD14+) (human PBMCs; 24 hr activation): 97%; CD19+ CD25+ percent expression in B-Cells (CD19+) (human PBMCs; 24 hr activation): 34%; CD19+ CD69+ percent expression in B-Cells (CD19+) (human PBMCs; 24 hr activation): 66%; CD19+ CD86+ percent expression in B-Cells (CD19+) (human PBMCs; 24 hr activation): 51%; CD19+ CD95+ percent expression in B-Cells (CD19+) (human PBMCs; 24 hr activation): 73%; CD69+ percent expression in NK-Cells (CD56+) (human PBMCs; 24 hr activation): 50%; CD69+ percent expression in T-cells (CD3+) (human PBMCs; 24 hr activation): 10%; MFI CD11b+ in Mono/Macs (CD14+) (human PBMCs; 24 hr activation): 1611; MFI CD54+ (ICAM-1) in B-cells (CD19+) (human PBMCs; 24 hr activation): 211; MFI CD54+(ICAM-1) in Mono/Macs (CD14+) (human PBMCs; 24 hr activation): 4445; protection against L. monocytogenes challenge (reduction of log 10 bacteria per spleen vs vehicle) [3]: protection that was equal to or greater than that provided by MPL; protection against influenza challenge over dose range (influenza A/HK/68): maximum protection over a dose range of 2.5 μg to 40 μg
3 | CCCCCCCCCCC[C@H](CC(=O)N[C@H]1[C@H](OC[C@H](NC(=O)C[C@@H](CCCCCCCCCCC)OC(=O)CCCCC)C(=O)O)O[C@H](CO)[C@@H](OP(=O)(O)O)[C@@H]1OC(=O)C[C@@H](CCCCCCCCCCC)OC(=O)CCCCC)OC(=O)CCCCC.CCN(CC)CC [RC-526] | – | – | 256 | 1.2 | 0.9 | 99 | 1 | 0 | 1 | 11 | 1 | 4 | 1 | 4 | 6 | 2154 | 55 | 502 | 93 | 2 | cytokine stimulation in human whole blood cultures (human whole blood; overnight culture): little if any cytokine stimulation; CD14+ CD25+ percent expression in Mono/Macs (CD14+) (human PBMCs; 24 hr activation): 1%; CD14+ CD69+ percent expression in Mono/Macs (CD14+) (human PBMCs; 24 hr activation): 2%; CD14+ TLR2+ percent expression in Mono/Macs (CD14+) (human PBMCs; 24 hr activation): 79%; CD19+ CD25+ percent expression in B-Cells (CD19+) (human PBMCs; 24 hr activation): 9%; CD19+ CD69+ percent expression in B-Cells (CD19+) (human PBMCs; 24 hr activation): 22%; CD19+ CD86+ percent expression in B-Cells (CD19+) (human PBMCs; 24 hr activation): 22%; CD19+ CD95+ percent expression in B-Cells (CD19+) (human PBMCs; 24 hr activation): 15%; CD69+ percent expression in NK-Cells (CD56+) (human PBMCs; 24 hr activation): 4%; CD69+ percent expression in T-cells (CD3+) (human PBMCs; 24 hr activation): 2%; MFI CD11b+ in Mono/Macs (CD14+) (human PBMCs; 24 hr activation): 1986; MFI CD54+ (ICAM-1) in B-cells (CD19+) (human PBMCs; 24 hr activation): 118; MFI CD54+(ICAM-1) in Mono/Macs (CD14+) (human PBMCs; 24 hr activation): 1590; protection against influenza challenge over dose range (influenza A/HK/68): no difference in protection up to doses of 40 μg
4 | CCCCCCCCCCC[C@H](CC(=O)N[C@H]1[C@H](OC[C@H](NC(=O)C[C@@H](CCCCCCCCCCC)OC(=O)CCCCC)C(=O)O)O[C@H](CO)[C@@H](OP(=O)(O)O)[C@@H]1OC(=O)C[C@@H](CCCCCCCCCCC)OC(=O)CCCCCCCCC)OC(=O)CCCCCCCCC.CCN(CC)CC [RC-569] | – | – | – | – | – | −13 | – | – | – | – | – | – | – | – | – | – | – | – | – | – | protection against influenza challenge, compared by secondary fatty acid chains (influenza A/HK/68): more protective than those having fewer
5 | CCCCCCCCCCC[C@H](CC(=O)N[C@H]1[C@H](OC[C@H](NC(=O)C[C@@H](CCCCCCCCCCC)OC(=O)CCCCCCCCC)C(=O)O)O[C@H](CO)[C@@H](OP(=O)(O)O)[C@@H]1OC(=O)C[C@@H](CCCCCCCCCCC)OC(=O)CCCCCCCCC)OC(=O)CCCCC.CCN(CC)CC [RC-565] | – | – | – | – | – | 16 | – | – | – | – | – | – | – | – | – | – | – | – | – | – | protection against influenza challenge, compared by secondary fatty acid chains (influenza A/HK/68): more protective than those having fewer
6 | CCCCCCCCCCC[C@H](CC(=O)N[C@H](CO)CCO[C@@H]1O[C@H](CO)[C@@H](OP(=O)(O)O)[C@H](OC(=O)C[C@@H](CCCCCCCCCCC)OC(=O)CCCCCCCCC)[C@H]1NC(=O)C[C@@H](CCCCCCCCCCC)OC(=O)CCCCCCCCC)OC(=O)CCCCCCCCC.CCN(CC)CC [RC-540] | 5.5 | 0.2 | – | 5.2 | 0.2 | – | – | – | – | – | – | – | – | – | – | – | – | – | – | – | protection against L. monocytogenes challenge (reduction of log 10 bacteria per spleen vs vehicle) [3]: protection that was equal to or greater than that provided by MPL
